From patent publication US6358885B1, “Substituted phenylheterocyclic herbicides” (Mississippi State University, priority 1992, dated 2002)

How the values were obtained:
soybean = test: Test C preemergence/postemergence greenhouse plant response rating 0 to 100; assay type: in vivo, Glycine max; details: POSTEMERGENCE; for Plant response rating, Soybean: 0 to 100 scale
How it was run: (§1)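 Compounds in non-phytotoxic solvent went onto sandy loam before emergence (seeded one day earlier) or onto plants at the one-to-four leaf stage. Duck salad was treated via flood water (~2.5 cm, maintained) over silt loam.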

velvetleaf = test: Test B preemergence/postemergence greenhouse plant response rating 0 to 10; assay type: in vivo, Abutilon theophrasti; details: 0 to 10 scale
How it was run: (§2)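 Postemergence treatment of plants two to eighteen cm tall ran alongside preemergence treatment of planted seed, each using compound in a non-phytotoxic solvent.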

rape = test: as above; assay type: in vivo, Brassica napus; details: 0 to 10 scale
How it was run: as §2

cheatgrass = test: as above; assay type: in vivo, Bromus secalinus; details: 0 to 10 scale
How it was run: as §2

corn = test: as above; assay type: in vivo, Zea mays; details: 0 to 10 scale
How it was run: as §2

chickweed = test: as above; assay type: in vivo, Stellaria media; details: 0 to 10 scale
How it was run: as §2

crabgrass = test: as above; assay type: in vivo, Digitaria spp.; details: 0 to 10 scale
How it was run: as §2

giant foxtail = test: as above; assay type: in vivo, Setaria faberii; details: 0 to 10 scale
How it was run: as §2

lambsquarters = test: Test C preemergence/postemergence greenhouse plant response rating 0 to 100; assay type: in vivo, Chenopodium album; details: POSTEMERGENCE; for Plant response rating Lambsquarters: 0 to 100 scale
How it was run: as §1

barnyardgrass = test: Test B preemergence/postemergence greenhouse plant response rating 0 to 10; assay type: in vivo, Echinochloa crus-galli; details: 0 to 10 scale
How it was run: as §2

morningglory [1] = test: Test C preemergence/postemergence greenhouse plant response rating 0 to 100; assay type: in vivo, Ipomoea hederacea; details: POSTEMERGENCE; for Plant response rating, Morningglory: 0 to 100 scale
How it was run: as §1

barley = test: as above; assay type: in vivo, Hordeum vulgare; details: POSTEMERGENCE; for Plant response rating Barley Igri: 0 to 100 scale
How it was run: as §1

morningglory [2] = test: Test B preemergence/postemergence greenhouse plant response rating 0 to 10; assay type: in vivo, Ipomoea hederacea; details: 0 to 10 scale
How it was run: as §2

## CC(C)OC(=O)c1cc(-c2nn3c(c2Cl)CCCC3)c(F)cc1Cl [Compound 44]
soybean; 62 g/ha
  Plant response rating, Soybean: 50
soybean; 250 g/ha
  Plant response rating, Soybean: 70
soybean; Rate 4 g/ha
  Plant response rating (0 to 100), Soybean: 10
soybean; Rate 16 g/ha
  Plant response rating (0 to 100), Soybean: 30
velvetleaf; POSTEMERGENCE, Rate 50 g/ha
  Plant response rating, Velvetleaf: 9
velvetleaf; PREEMERGENCE, Rate 50 g/ha
  Plant response rating, Velvetleaf: 4
velvetleaf; Rate 200 g/ha, POSTEMERGENCE
  Plant response rating, Velvetleaf: 10
velvetleaf; Rate 200 g/ha, PREEMERGENCE
  Plant response rating, Velvetleaf: 8
rape; POSTEMERGENCE, Rate 50 g/ha
  Plant response rating, Rape: 9
rape; PREEMERGENCE, Rate 50 g/ha
  Plant response rating, Rape: 2
rape; Rate 200 g/ha, POSTEMERGENCE
  Plant response rating, Rape: 10
rape; Rate 200 g/ha, PREEMERGENCE
  Plant response rating, Rape: 8
cheatgrass; POSTEMERGENCE, Rate 50 g/ha
  Plant response rating, Cheatgrass: 7
cheatgrass; POSTEMERGENCE, Rate 200 g/ha
  Plant response rating, Cheatgrass: 10
cheatgrass; PREEMERGENCE, Rate 50 g/ha
  Plant response rating, Cheatgrass: 2
cheatgrass; Rate 200 g/ha, PREEMERGENCE
  Plant response rating, Cheatgrass: 6
corn; POSTEMERGENCE, Rate 50 g/ha
  Plant response rating, Corn: 4
corn; POSTEMERGENCE, Rate 200 g/ha
  Plant response rating, Corn: 6
corn; PREEMERGENCE, Rate 50 g/ha
  Plant response rating, Corn: 2
corn; Rate 200 g/ha, PREEMERGENCE
  Plant response rating, Corn: 3
chickweed; POSTEMERGENCE, Rate 200 g/ha
  Plant response rating, Chickweed: 10
chickweed; PREEMERGENCE, Rate 50 g/ha
  Plant response rating, Chickweed: 9
chickweed; Rate 200 g/ha, PREEMERGENCE
  Plant response rating, Chickweed: 9
crabgrass; POSTEMERGENCE, Rate 200 g/ha
  Plant response rating, Crabgrass: 10
crabgrass; PREEMERGENCE, Rate 50 g/ha
  Plant response rating, Crabgrass: 3
crabgrass; Rate 200 g/ha, PREEMERGENCE
  Plant response rating, Crabgrass: 9
Giant foxtail; POSTEMERGENCE, Rate 50 g/ha
  Plant response rating, Giant foxtail: 6
Giant foxtail; PREEMERGENCE, Rate 50 g/ha
  Plant response rating, Giant foxtail: 7
Giant foxtail; Rate 200 g/ha, POSTEMERGENCE
  Plant response rating, Giant foxtail: 9
Giant foxtail; Rate 200 g/ha, PREEMERGENCE
  Plant response rating, Giant foxtail: 8
lambsquarters; 62 g/ha
  Plant response rating Lambsquarters: 100
lambsquarters; 250 g/ha
  Plant response rating Lambsquarters: 100
lambsquarters; Rate 4 g/ha
  Plant response rating (0 to 100), Lambsquarters: 90
lambsquarters; Rate 16 g/ha
  Plant response rating (0 to 100), Lambsquarters: 100
barnyardgrass; POSTEMERGENCE, Rate 50 g/ha
  Plant response rating, Barnyardgrass: 8
barnyardgrass; POSTEMERGENCE, Rate 200 g/ha
  Plant response rating, Barnyardgrass: 10
barnyardgrass; PREEMERGENCE, Rate 50 g/ha
  Plant response rating, Barnyardgrass: 5
barnyardgrass; Rate 200 g/ha, PREEMERGENCE
  Plant response rating, Barnyardgrass: 8
Morningglory [1]; 62 g/ha
  Plant response rating, Morningglory: 95
Morningglory [1]; 250 g/ha
  Plant response rating, Morningglory: 100
Morningglory [1]; Rate 4 g/ha
  Plant response rating (0 to 100), Morningglory: 50
Morningglory [1]; Rate 16 g/ha
  Plant response rating (0 to 100), Morningglory: 70
barley; 62 g/ha
  Plant response rating Barley Igri: 40
barley; 250 g/ha
  Plant response rating Barley Igri: 60
barley; Rate 4 g/ha
  Plant response rating (0 to 100), Barley Igri: 10
barley; Rate 16 g/ha
  Plant response rating (0 to 100), Barley Igri: 30
Morningglory [2]; POSTEMERGENCE, Rate 50 g/ha
  Plant response rating, Morningglory: 9
Morningglory [2]; PREEMERGENCE, Rate 50 g/ha
  Plant response rating, Morningglory: 7
Morningglory [2]; Rate 200 g/ha, POSTEMERGENCE
  Plant response rating, Morningglory: 10
Morningglory [2]; Rate 200 g/ha, PREEMERGENCE
  Plant response rating, Morningglory: 10

## CCC(C)Oc1cc(-c2nn3c(c2Cl)CCCC3)c(F)cc1Cl (centres unmarked) [Compound 48]
soybean; 62 g/ha
  Plant response rating, Soybean: 40
soybean; 250 g/ha
  Plant response rating, Soybean: 50
soybean; Rate 4 g/ha
  Plant response rating (0 to 100), Soybean: 30
soybean; Rate 16 g/ha
  Plant response rating (0 to 100), Soybean: 30
velvetleaf; POSTEMERGENCE, Rate 50 g/ha
  Plant response rating, Velvetleaf: 9
velvetleaf; PREEMERGENCE, Rate 50 g/ha
  Plant response rating, Velvetleaf: 0
velvetleaf; Rate 200 g/ha, POSTEMERGENCE
  Plant response rating, Velvetleaf: 10
velvetleaf; Rate 200 g/ha, PREEMERGENCE
  Plant response rating, Velvetleaf: 4
rape; POSTEMERGENCE, Rate 50 g/ha
  Plant response rating, Rape: 8
rape; PREEMERGENCE, Rate 50 g/ha
  Plant response rating, Rape: 4
rape; Rate 200 g/ha, POSTEMERGENCE
  Plant response rating, Rape: 6
rape; Rate 200 g/ha, PREEMERGENCE
  Plant response rating, Rape: 9
cheatgrass; POSTEMERGENCE, Rate 50 g/ha
  Plant response rating, Cheatgrass: 6
cheatgrass; POSTEMERGENCE, Rate 200 g/ha
  Plant response rating, Cheatgrass: 7
cheatgrass; PREEMERGENCE, Rate 50 g/ha
  Plant response rating, Cheatgrass: 0
cheatgrass; Rate 200 g/ha, PREEMERGENCE
  Plant response rating, Cheatgrass: 2
corn; POSTEMERGENCE, Rate 50 g/ha
  Plant response rating, Corn: 3
corn; POSTEMERGENCE, Rate 200 g/ha
  Plant response rating, Corn: 3
corn; PREEMERGENCE, Rate 50 g/ha
  Plant response rating, Corn: 0
corn; Rate 200 g/ha, PREEMERGENCE
  Plant response rating, Corn: 1
chickweed; POSTEMERGENCE, Rate 50 g/ha
  Plant response rating, Chickweed: 9
chickweed; POSTEMERGENCE, Rate 200 g/ha
  Plant response rating, Chickweed: 8
chickweed; Rate 200 g/ha, PREEMERGENCE
  Plant response rating, Chickweed: 4
crabgrass; POSTEMERGENCE, Rate 50 g/ha
  Plant response rating, Crabgrass: 8
crabgrass; POSTEMERGENCE, Rate 200 g/ha
  Plant response rating, Crabgrass: 9
crabgrass; PREEMERGENCE, Rate 50 g/ha
  Plant response rating, Crabgrass: 2
crabgrass; Rate 200 g/ha, PREEMERGENCE
  Plant response rating, Crabgrass: 9
Giant foxtail; POSTEMERGENCE, Rate 50 g/ha
  Plant response rating, Giant foxtail: 6
Giant foxtail; PREEMERGENCE, Rate 50 g/ha
  Plant response rating, Giant foxtail: 6
Giant foxtail; Rate 200 g/ha, POSTEMERGENCE
  Plant response rating, Giant foxtail: 9
Giant foxtail; Rate 200 g/ha, PREEMERGENCE
  Plant response rating, Giant foxtail: 9
lambsquarters; 62 g/ha
  Plant response rating Lambsquarters: 100
lambsquarters; 250 g/ha
  Plant response rating Lambsquarters: 100
lambsquarters; Rate 4 g/ha
  Plant response rating (0 to 100), Lambsquarters: 60
lambsquarters; Rate 16 g/ha
  Plant response rating (0 to 100), Lambsquarters: 60
barnyardgrass; POSTEMERGENCE, Rate 50 g/ha
  Plant response rating, Barnyardgrass: 4
barnyardgrass; POSTEMERGENCE, Rate 200 g/ha
  Plant response rating, Barnyardgrass: 8
barnyardgrass; PREEMERGENCE, Rate 50 g/ha
  Plant response rating, Barnyardgrass: 2
barnyardgrass; Rate 200 g/ha, PREEMERGENCE
  Plant response rating, Barnyardgrass: 3
Morningglory [1]; 62 g/ha
  Plant response rating, Morningglory: 60
Morningglory [1]; 250 g/ha
  Plant response rating, Morningglory: 95
Morningglory [1]; Rate 4 g/ha
  Plant response rating (0 to 100), Morningglory: 30
Morningglory [1]; Rate 16 g/ha
  Plant response rating (0 to 100), Morningglory: 50
barley; 62 g/ha
  Plant response rating Barley Igri: 30
barley; 250 g/ha
  Plant response rating Barley Igri: 40
barley; Rate 4 g/ha
  Plant response rating (0 to 100), Barley Igri: 10
barley; Rate 16 g/ha
  Plant response rating (0 to 100), Barley Igri: 20
Morningglory [2]; POSTEMERGENCE, Rate 50 g/ha
  Plant response rating, Morningglory: 10
Morningglory [2]; PREEMERGENCE, Rate 50 g/ha
  Plant response rating, Morningglory: 1
Morningglory [2]; Rate 200 g/ha, POSTEMERGENCE
  Plant response rating, Morningglory: 10
Morningglory [2]; Rate 200 g/ha, PREEMERGENCE
  Plant response rating, Morningglory: 3
